# Results from EP4740947A1, “PHARMACEUTICAL COMBINATION OF EGFR KINASE INHIBITOR AND C-MET KINASE INHIBITOR FOR TREATING TUMOR DISEASES” (Jiangsu AoSaiKang Pharmaceutical Co., Ltd., priority 2023, dated 2025).
# Legend:
# NCI-H1975-HGF = experiment: Efficacy study in xenograft model established with engineered cell line NCI-H1975-HGF in immunodeficient mice; assay type: in vivo, B-NDG mice; conditions: for NCI-H1975 HGF tumor volume (mm^3): mean ± standard error; for TGI (%) / ΔT/ΔC (%): Day 15 vs vehicle
# Experimental: The efficacy of the test drugs in a xenograft model established with the engineered cell line NCI-H1975-HGF in immunodeficient mice was verified.
# Table 1. Cell information
# B-NDG mice, female, age: 8 weeks, weight: 18-22 g, purchased from Biocytogen.
# • Vehicle: 20% solutol/80% 100 mM sodium acetate buffer pH 5.5; • ASK-MET: hydrochloride of the compound of Formula (II), prepared with 20% solutol/80% 100 mM sodium acetate buffer pH 5.5, concentration: 0.2 mg/mL; • ASK-EGFR: compound of Formula (I), prepared with 0.5% sodium carboxymethyl cellulose solution (0.5%CMC-Na), concentration: 2 mg/mL. • Solutol: polyethylene glycol-15 hydroxystearate; • 100 mM sodium acetate buffer pH 5.5; • 20% solutol/80% 100 mM sodium acetate buffer pH 5.5 means that the volume ratio of solutol to 100 mM sodium acetate buffer pH 5.5 in the drug solution was 20:80, the same below.
# 1) NCI-H1975-HGF was resuscitated and cultured in vitro to obtain 1.5*10^7 cells. 2) 15 8-10-week-old immunodeficient mice were adaptively raised for 1 week, and weighed. Table 2. Inoculation information
# (§1) 4) After inoculation, the tumor volume and weight were measured twice a week. When the average tumor volume reached about 100 mm^3, the animals were randomly divided into 4 groups according to the tumor volume and weight, each group having 3 animals. The animals were immediately administered after grouping. The day of administration was regarded as day 0. Table 3. Grouping and administration information
# After inoculation and before grouping, when the tumor was visible, the tumor volume of the test animals was measured once a week. After grouping, the tumor volume of animals in the experiment was measured twice a week. The tumor volume was measured by a two-way measurement method. The major and minor diameter of the tumor were measured by vernier caliper, and then the tumor volume was calculated by the formula TV = 1/2 × a × b^2, where a is the major diameter of the tumor and b is the minor diameter of the tumor.
# At the end of the experiment, the following analysis methods were used for data analysis (Table 4). Table 4. Data analysis methods
# For an experiment having two groups, T-Test analysis method is used; and for comparison of three or more groups, One-Way ANOVA method is used for analysis. For the potential synergistic effect, Two-Way ANOVA is used. There is a significant difference when p value is less than 0.05.
# [1] = Body weight monitoring and daily observation in the NCI-H1975-HGF xenograft model; assay type: in vivo
# Experimental: as §1
# After inoculation, the disease attack and death of animals were observed every working day. Daily observation includes tumor growth and the effects of drugs on test animals, such as changes in activity, changes in food and water intake, weight loss, appearance changes in hair and eyes, death and other clinical symptoms.
# After inoculation and before grouping, the weight of test animals was measured once a week. After grouping, the weight of the test animals was measured twice a week.
# [2] = Body weight change and tolerance of tumor-bearing mice in the LD1-0025-200662 PDX model; assay type: in vivo; conditions: for Rate of weight change (%) Day 21: Day 21 vs Day 0
# Experimental: Immunodeficient mice were subcutaneously inoculated with LD1-0025-200662 tumor tissue, and observed continuously till tumor formation. When the tumor volume reached about 1000 mm^3, the tumor tissue was peeled off and cut into tumor tissue with a size of about 3 mm × 3 mm × 3 mm (about 50-90 mg), and inoculated subcutaneously in NU/NU mice. The inoculated mice were observed and the growth of tumor was monitored. When the average tumor volume of tumor-bearing mice reached 193.40 mm^3, the mice were randomly divided into groups, administered and observed. The tumor volume and weight of all tumor-bearing mice were measured before grouping, and the tumor-bearing mice were randomly grouped according to the measured tumor volume. According to the principle of random block design, the mice were first divided into blocks according to the tumor volume, and then the mice in each block were randomly assigned to each treatment group. Table 9. Administration and treatment
# During the whole experiment, the use and observation of test animals were carried out in accordance with the relevant regulations of Guide for the Care and Use of Laboratory Animals of AAALAC. After the test animals were inoculated with the tumor tissue, they were observed every day and the disease attack and death were recorded. During the routine experiment, all the test animals were monitored and recorded for behavior, food intake, water intake, weight change, hair luster and other abnormal conditions.
# 5.6 The weight of tumor-bearing mice was measured twice a week, and the change rate of weight gain of mice after administration was calculated: RCBW(%) = (BWi - BW0) / BW0 × 100, where BWi was the average weight at a certain measurement after administration, and BW0 was the average weight at the first administration.
# [3] = Day 0, ASK-MET 2 mg/kg p.o. QD×15 (G2)
# [4] = Day 2, ASK-MET 2 mg/kg p.o. QD×15 (G2)
# [5] = Day 5, ASK-MET 2 mg/kg p.o. QD×15 (G2)
# [6] = Day 8, ASK-MET 2 mg/kg p.o. QD×15 (G2)
# [7] = Day 12, ASK-MET 2 mg/kg p.o. QD×15 (G2)
# [8] = Day 15, ASK-MET 2 mg/kg p.o. QD×15 (G2)
# [9] = ASK-MET 2 mg/kg p.o. QD×15 (G2)
# [10] = ASK-MET 1 mg/kg p.o. QD×(D0-D7) (G3)
# [11] = ASK-MET 3 mg/kg p.o. QD×(D0-D7) (G4)
# [12] = Day 0, ASK-EGFR 20 mg/kg p.o. QD×15 (G4)
# [13] = Day 2, ASK-EGFR 20 mg/kg p.o. QD×15 (G4)
# [14] = Day 5, ASK-EGFR 20 mg/kg p.o. QD×15 (G4)
# [15] = Day 8, ASK-EGFR 20 mg/kg p.o. QD×15 (G4)
# [16] = Day 12, ASK-EGFR 20 mg/kg p.o. QD×15 (G4)
# [17] = Day 15, ASK-EGFR 20 mg/kg p.o. QD×15 (G4)
# [18] = ASK-EGFR 20 mg/kg p.o. QD×15 (G4)
# [19] = ASK-EGFR 20 mg/kg p.o. QD×21 (G2)
structure (smiles),measurement,setting,value
CC(C)(O)CN1CCC(COc2cnc(-c3cccc(Cn4c(=O)ccn5c6cc(C#N)ccc6nc45)c3)nc2)CC1 [ASK-MET],NCI-H1975 HGF tumor volume (mm^3),NCI-H1975-HGF; [3],96.28 ±7.10 mm^3
same,NCI-H1975 HGF tumor volume (mm^3),NCI-H1975-HGF; [4],147.46 ±23.06 mm^3
same,NCI-H1975 HGF tumor volume (mm^3),NCI-H1975-HGF; [5],274.61 ±85.69 mm^3
same,NCI-H1975 HGF tumor volume (mm^3),NCI-H1975-HGF; [6],434.60 ±55.60 mm^3
same,NCI-H1975 HGF tumor volume (mm^3),NCI-H1975-HGF; [7],658.86 ±111.99 mm^3
same,NCI-H1975 HGF tumor volume (mm^3),NCI-H1975-HGF; [8],940.03±159.86 mm^3
same,TGI (%),NCI-H1975-HGF; [9],28.48%
same,ΔT/ΔC (%),NCI-H1975-HGF; [9],71.52%
same,Weight,[1]; [3],20.3 ± 1.0 g
same,Weight,[1]; [4],20.3 ± 1.3 g
same,Weight,[1]; [5],20.5 ± 1.0 g
same,Weight,[1]; [6],20.8 ± 0.3 g
same,Weight,[1]; [7],20.8 ± 0.4 g
same,Weight,[1]; [8],20.5 ± 0.4 g
same,Average weight (g) (Mean ± SEM) Day 0,[2]; [10],24.08 ± 0.53 g
same,Average weight (g) (Mean ± SEM) Day 0,[2]; [11],24.02 ± 0.37 g
same,Average weight (g) (Mean ± SEM) Day 21,[2]; [10],25.24 ± 0.50 g
same,Average weight (g) (Mean ± SEM) Day 21,[2]; [11],25.03 ± 0.45 g
same,Rate of weight change (%) Day 21,[2]; [10],4.88±0.71%
same,Rate of weight change (%) Day 21,[2]; [11],4.19±1.08%
"C=CC(=O)Nc1cc(Nc2ncc(Cl)c(Nc3ccc4ccccc4c3)n2)c(OC)cc1N(C)CCN(C)C [ASK-EGFR, N-((5-((5-chloro-4-((naphthalen-2-yl)amino))pyrimidin-2-yl)amino)-2-((N-methyl-N-dimethylaminoethyl)amino)-4-methoxyphenyl) acrylamide]",NCI-H1975 HGF tumor volume (mm^3),NCI-H1975-HGF; [12],94.47 ±9.54 mm^3
same,NCI-H1975 HGF tumor volume (mm^3),NCI-H1975-HGF; [13],154.47 ±24.23 mm^3
same,NCI-H1975 HGF tumor volume (mm^3),NCI-H1975-HGF; [14],201.41 ±24.69 mm^3
same,NCI-H1975 HGF tumor volume (mm^3),NCI-H1975-HGF; [15],357.90 ±31.91 mm^3
same,NCI-H1975 HGF tumor volume (mm^3),NCI-H1975-HGF; [16],440.56 ±16.92 mm^3
same,NCI-H1975 HGF tumor volume (mm^3),NCI-H1975-HGF; [17],589.86±36.92 mm^3
same,TGI (%),NCI-H1975-HGF; [18],58.01%
same,ΔT/ΔC (%),NCI-H1975-HGF; [18],41.99%
same,Weight,[1]; [12],22.0 ± 0.1 g
same,Weight,[1]; [13],21.9 ± 0.2 g
same,Weight,[1]; [14],22.1 ± 0.1 g
same,Weight,[1]; [15],21.1 ± 0.3 g
same,Weight,[1]; [16],21.5 ± 0.6 g
same,Weight,[1]; [17],21.0 ± 0.5 g
same,Average weight (g) (Mean ± SEM) Day 0,[2]; [19],23.24 ± 0.47 g
same,Average weight (g) (Mean ± SEM) Day 21,[2]; [19],24.75 ± 0.64 g
same,Rate of weight change (%) Day 21,[2]; [19],6.45±1.28%
